Residues, ends and D or L forms follow the SMILES beside them. *: point of attachment. Boc = CC(C)(C)OC(=O)*; Bn = c1ccc(C*)cc1

Consider `Cc1ccc(C)n1N1C(=O)c2ccccc2C1=O`, for which the melting point (commonly the temperature, or range, at which the solid turns liquid) lay within 182 to 184 °C.

In turn, `COc1cc(C(=O)O)ccc1OCc1cccc(OCc2ccc3ccccc3n2)c1` displayed a melting point of 188 to 190 °C.

For `CCOC(=O)c1csc(/C=C/c2cccc([N+](=O)[O-])c2)n1`, the melting point fell in the range of 151 to 153 °C.

Turning to `Cc1ccc(C=C2C=C(C(C)(C)C)C=C(C(C)(C)C)C2=O)cc1C`, the melting point lay within 214 to 217 °C.

`CCOC(=O)C=Cc1ccc(NCCOC)cc1` came in with a melting point of 49.9 to 53.4 °C.

In turn, `NS(=O)(=O)c1cc(C(=O)NNc2ccccc2)ccc1Cl` came in with a melting point of 189 to 190 °C.

`COC(=O)Cn1ccc2ccc(-c3nccc(-c4ccccc4)n3)cc21` came in with a melting point of 111 °C.

As for `COc1ccc(CC#N)cc1S(=O)(=O)NC(C)(C)C`, the melting point is 146 to 147 °C.

Consider `CCCCNC(=O)N1C2=NC(C)(C)N(C)C(=O)N2c2ccccc21`, for which the melting point was in the range of 95 to 97 °C.

With `CON1C=C2N=NC3=C(N2C1)N(c1ccccc1Cl)CC=C3`, the melting point lay within 190 to 193 °C.

Turning to `CCOc1ccc(C2=NC(=O)C(C)(C(C)C)N2)nc1` (stereo not drawn), the melting point was in the range of 143 to 145 °C.

As for `O=C(c1ccc(Cl)c(Cl)c1)N1CCCC(c2ccc(Br)s2)=N1`, the melting point was in the range of 138 to 140 °C.

On to `CC(C)(CO)CCNC(=O)OC(C)(C)C`, for which the melting point was in the range of 75.5 to 76.5 °C.

`Cc1csc2[nH]c(=O)c(=O)[nH]c12`: the melting point was over 320 °C.

In turn, `O=C(NCCO)c1cccc(-c2nccc3cc(Cc4cccc(C(F)(F)F)c4)oc23)c1` registered a melting point of 168 to 169 °C.

The molecule `COC(=O)CC1CCN(C(=O)c2cnc(-c3ccc(C(=N)NC(=O)OC)cc3)nc2OC)CC1` had a melting point of 193 to 195 °C.

As to `CC1=NN=C(c2ccc([N+](=O)[O-])c(C)c2)c2cc3c(cc2C1)OCO3`, the melting point lay within 189 to 194 °C.

With `CC(C)(C)NC(=O)Nc1nc2nc(N)ncc2cc1-c1ccccc1`, the melting point is over 250 °C.

Regarding `CC(=O)C(C(=O)NS(=O)(=O)c1ccc(C)cc1)C(=O)c1ccccc1` (stereo not drawn), the melting point lay in the range of 114 to 116 °C.

`Cc1oc(-c2ccccc2)nc1COc1cccc(C=CC=Cc2nnn[nH]2)c1`: the melting point lay in the range of 201 to 202 °C.

In the case of `CCn1c(=O)c2c(nc(/C=C/c3ccc(O)c(O)c3)n2C)n(CC)c1=O`, the melting point amounted to 248 °C.

`COC(=O)CN(CCNC(=O)OC(C)(C)C)C(=O)Cc1cc2ccc(C)nc2[nH]c1=O` showed a melting point of 98 to 100 °C.

Molecule `Cn1c2ccccc2c2c3c(c4c5ccccc5n(CCCCN)c4c21)C(=O)NC3=O` yielded a melting point of 177 to 181 °C.

Regarding `COC(=O)c1scc2nc(SCc3cc(OC)ccn3)[nH]c12`, the melting point lay in the range of 156 to 160 °C.

Molecule `COc1ccc(C(=O)c2cc(-c3ccc(NC(C)=O)cc3)c(N3CCOCC3)s2)cc1` registered a melting point of 198 °C.

`CONC(=O)Nc1ccc(-c2sc3c(c2CN(C)CCc2ccccn2)c(=O)n(-c2ccccn2)c(=O)n3Cc2c(F)cccc2F)cc1` registered a melting point of 194 to 196 °C.

Molecule `O=C1c2ccc(Cl)cc2CC1Sc1ccccc1` (stereo not drawn) showed a melting point of 89 °C.

The molecule `N#Cc1c(C(=O)O)cnn1-c1ccc(Cl)cc1` registered a melting point of 192 to 195 °C.

Molecule `N#CN=C(Nc1cccnc1)NC1(c2cccc(Cl)c2)CCC1` yielded a melting point of 102 to 104 °C.

In turn, `COc1cc(C(=O)N2CCNC(C(=O)N(C)C)C2)cc(OC)c1OC` (stereo not drawn) yielded a melting point of 167 to 168 °C.

`Cc1cccc(NC(=O)NCC(=O)N(CC(=O)OC(C)(C)C)c2ccccc2C(=O)N2CCCc3ccccc32)c1`: the melting point was found to be 160 °C.

As to `N#Cc1c(N2CCN(C(=O)c3cccs3)CC2)c2cc(Cl)cnc2n(Cc2cccc(F)c2)c1=O`, the melting point was determined as 204 °C.

With `CCOc1ccc(N2CCN(c3c(C)c4c(c(OC)c3C)OC(C)C4)CC2)cc1` (stereo not drawn), the melting point was in the range of 117 to 119 °C.

`CCC1C(=O)Nc2cc(N)c(N)cc21` (stereo not drawn): the melting point was over 300 °C.

The molecule `O=S1(=O)C=CC(c2ccccc2)(c2ccccc2)CC1` gave a melting point of 166 °C.

`CC(NC(=O)C(Cc1ccc(OCc2ccccc2)cc1)NC(=O)OC(C)(C)C)C(=O)NCC(=O)O` (stereo not drawn) (Boc-Tyr(Bn)-Ala-Gly-OH; configuration not given here): the melting point lay within 104 to 107 °C.

`CS(=O)(=O)c1ccc(-c2cnn(Cc3ccccc3C(F)(F)F)c(=O)c2-c2ccc(F)cc2)cc1` displayed a melting point of 87 to 90 °C.

With `COC(=O)CN(C)S(=O)(=O)c1ccc(Cl)cc1`, the melting point fell in the range of 80 to 80.5 °C.

As to `CC(C)OCc1c(S(C)(=O)=O)ccc(Br)c1Cl`, the melting point lay in the range of 87 to 91 °C.

`Cc1cccc(N2CCN(CCC3CN(C)C(=O)O3)CC2)c1` (stereo not drawn) yielded a melting point of 72 to 74 °C.

`CC(C)CNc1cccnc1N1CCN(C(=O)c2ccc(C(=O)NC(C)(C)CO)cn2)CC1` yielded a melting point of 140 to 143 °C.

On to `CCCCCCCCCCCCCCSc1ccc(C(=O)O)o1`, for which the melting point was in the range of 84 to 86 °C.

`C=CCOc1ccccc1C1C(C(=O)OCC)=C(C)NC(C#N)=C1C(=O)OCC` (stereo not drawn) displayed a melting point of 143 to 145 °C.

Molecule `CCSc1cc(C)nc(SCC)c1NC(=O)CCCCCCCCSc1nc2c(C)c(Cl)cc(C(C)C)c2o1` returned a melting point of 93 to 94 °C.

With `CCOC(CNC(=S)Nc1cccc2nc(C)ccc12)OCC`, the melting point lay within 181 to 185 °C.

Molecule `CCCOc1c(-c2cc(C=CC(=O)O)ccc2OC)cc(C(C)(C)C)cc1C(C)(C)C` gave a melting point of 107 to 109 °C.

In turn, `CC/C(=C\CCC(O)(CC)CC)c1cc(COc2ccc(CO)c(CO)c2)cs1` had a melting point of 63 to 64 °C.

For `COc1ccc(C2C3=C(COC3=O)Nc3ccc4cn[nH]c4c32)cc1O` (stereo not drawn), the melting point lay within 243 to 245 °C.

In turn, `CC(=O)C(C#N)c1ccc(F)cc1` (stereo not drawn) registered a melting point of 77 to 83 °C.

For the molecule `CCCc1c(OCCOc2ccc3c(=O)cc(-c4ccc(C(=O)OCC)cc4)oc3c2CCC)ccc(C(C)=O)c1O`, the melting point lay in the range of 167 to 168 °C.

In the case of `CC(C)(C)COC(=O)c1cc(Cl)c(F)c(Cl)c1F`, the melting point was 38 to 42 °C.

`CCOC(=O)Cc1cc(O)ccc1CCc1cc2cc(C#N)ccc2o1` had a melting point of 84 to 86 °C.

`Cc1nc2cccc(OCC(C)(C)NC(=O)CN3CCOCC3)c2c(N)c1C(=O)O` returned a melting point of 173 to 175 °C.

`O=C1c2ccccc2C(=O)c2c1cccc2N1CCC(C2CCNCC2)CC1` gave a melting point of 155 to 160 °C.

In turn, `CCOC(=O)c1cn(-c2cccc(COCc3ccccn3)c2)cn1` came in with a melting point of 76.7 to 78.8 °C.

Regarding `CCCn1c(=O)c(C(=O)OCC)c(O)c2cnc(-c3ccccc3)nc21`, the melting point lay within 164 to 167 °C.

On to `O=C(O)c1cc(Oc2c(Cl)cc(Cl)cc2Cl)ccc1[N+](=O)[O-]`, for which the melting point turned out to be 192 °C.

`Cc1ccc2cccc(OCc3c(Cl)ccc(S(=O)(=O)N4CCCC4C(=O)NCCCCCO)c3Cl)c2n1` (stereo not drawn): the melting point was found to be 64 °C.

The molecule `O=C1c2ccc(-c3cccnc3)cc2CC1Cl` (stereo not drawn) registered a melting point of 103 to 105 °C.

Molecule `COc1ccc(CCNC(=O)C(=O)NO)cc1OC1CCCC1` showed a melting point of 136 to 137 °C.

The molecule `Cc1cccc2[nH]c(Nc3ccc(CC(=O)O)cc3)nc12` yielded a melting point of 385 to 387 °C.

The molecule `Oc1ccc(-c2noc(C3(CSc4ccccc4)CC3)c2-c2ccccc2)cc1` showed a melting point of 180 to 181 °C.

`O=c1oc(-c2ccccc2)cc(O)c1SCCOc1ccccc1` returned a melting point of 146 to 149 °C.

In turn, `CCOC(=O)CN1CCN(c2cccc(C3=NC(C)(C)Cc4cc(OC)c5c(c43)CC(C)(C)O5)c2)S1(=O)=O` yielded a melting point of 153 to 155 °C.

`OC(COc1ccc(Cl)cc1)(Cn1cncn1)c1ccc(Br)s1` (stereo not drawn): the melting point was in the range of 108 to 112 °C.

`CC(C)COC(=O)Oc1ccc2c(c1)OCN(CCO[N+](=O)[O-])C2=O` returned a melting point of 82 to 84 °C.

`O=[N+]([O-])c1cc(Br)cc(O)c1O` came in with a melting point of 102 to 105 °C.

Take `CC(=NO)c1ncnc(OC(C)C)c1C`: the melting point lay within 95.4 to 96.5 °C.

As to `CC(C)Cc1nc(-c2ccccc2)cnc1NN`, the melting point was 109 to 110 °C.

For `Cn1ccnc1COc1ccc(-c2cc(-c3c[nH]nc3-c3ccccn3)ccn2)cc1`, the melting point came to 112 °C.

`CCOCc1nc2c(N)nc3cccnc3c2n1CCCC(N)=O` registered a melting point of 231 to 232 °C.

Consider `O=S(=O)(c1ccc(O)cc1)N1CCCC1`, for which the melting point was 122 to 125 °C.

Molecule `CC(=O)Nc1c(OC(C)=O)cc(C)cc1[N+](=O)[O-]` had a melting point of 163 to 165 °C.

In turn, `CC(Oc1cc(-n2nc3n(c2=O)CCCC3)c(Cl)cc1Cl)C(=O)O` (stereo not drawn) had a melting point of 183 to 185 °C.

The molecule `Cc1nn(-c2ccccn2)c2c1C(O)CC(C)(C)C2` (stereo not drawn) came in with a melting point of 125 to 126 °C.

In turn, `CC1C(=O)N(Oc2ccc(F)cc2F)Cc2ccc(NC3CCOCC3)nc21` (stereo not drawn) displayed a melting point of 238 to 239 °C.

Take `Cc1cc(OCCc2ccccc2)ccc1[N+](=O)[O-]`: the melting point fell in the range of 70 to 72 °C.

Consider `O=[N+]([O-])c1ccc(-c2ncnn2-c2ccccc2F)cc1`, for which the melting point is 143 to 145 °C.

The molecule `CCc1ccccc1C(Cc1ccccc1NC(=O)C(C)(C)C)NC` (stereo not drawn) yielded a melting point of 80 to 81.5 °C.

Regarding `COc1cc(N)c(Cl)cc1C(=O)NC1CCN(CC2CCCCC2)CC1C` (stereo not drawn), the melting point was in the range of 173 to 176 °C.

In the case of `COc1ccc(Cl)c(Oc2c(C=O)nc(N3CCOCC3)nc2NS(=O)(=O)c2ccc(C(C)C)cn2)c1`, the melting point is 194 °C.

As to `COc1cc(C=CC(=O)Nc2cnc3ccc(C)cc3c2-c2ccccc2C)cc(OC)c1OC(C)=O`, the melting point lay in the range of 242 to 243 °C.

In turn, `Cc1c(O)ccc2c(C(F)(F)F)cc(=O)oc12` showed a melting point of 114 to 116 °C.

Molecule `CC(C)(N)Cn1c(CO)nc2c(N)nc3ccccc3c21` came in with a melting point of 248 to 250 °C.

For the molecule `Nc1ncc2cc(-c3c(Br)cccc3Br)c(N)nc2n1`, the melting point was in the range of 284 to 289 °C.

The molecule `Cn1c(N=C=O)c(-c2ccccc2)c2cc([N+](=O)[O-])ccc21` registered a melting point of over 250 °C.

For `COc1ccnc(CSCCN=C(NC#N)SC)c1`, the melting point lay in the range of 91.5 to 92.5 °C.

In turn, `O=C(O)CN1C(=O)C(=Cc2c[nH]c3ccc(Cl)cc23)SC1=S` came in with a melting point of 278 to 282 °C.
